Experimental findings from DBAASP are described below.

What all share (assay): ≥ marks a high value that may be exact or a test limit, other limits are often not marked, values filed in µg/mL are converted to µM
For assay [1], the system named is Micrococcus luteus ATCC 4698.
The test system of assay [2] is Vibrio anguillarum NCIMB 2133.
For assay [3], the system named is Aeromonas salmonicida NCIMB 1102.
The test system of assay [4] is Vibrio anguillarum VI-F258-3.
For assay [5], the system named is Yersinia ruckeri NCIMB 2196.
Assay [6] relates to Psychrobacter immobilis NCIMB 308.
For assay [7], the system named is Escherichia coli ATCC 25922.
Assay [8] has as its system Corynebacterium glutamicum ATCC 13032.
For assay [9], the system named is Vibrio anguillarum NCIMB 2129.
Assay [10] relates to Staphylococcus aureus ATCC 9144.
Assay [11] concerns Planococcus citreus NCIMB 1493.
Assay [12] has as its system Yersinia ruckeri VI-3629.
Assay [13] has as its system Escherichia coli AB94012.
For assay [14], the system named is Listeria fleischmannii DSM 24998.
Assay [15] deals with Listeria grayi DSM 20601.
Assay [16] concerns Staphylococcus epidermidis P1389.
For assay [17], the system named is Staphylococcus aureus P1383.
In assay [18] the test system is Pseudomonas aeruginosa AB93066.
Assay [19] concerns Staphylococcus epidermidis P1111.
Assay [20] has as its system Staphylococcus aureus P1374.
Assay [21] concerns Staphylococcus aureus P1381.
Assay [22] relates to Micrococcus luteus DSM 20030.
Assay [23] concerns Listeria monocytogenes DSM 20600.
Assay [24] relates to Staphylococcus aureus P1386.
Assay [25] has as its system Escherichia coli D31.
For assay [26], the system named is Staphylococcus aureus DSM 2569.
In assay [27] the test system is Staphylococcus aureus P1369.
Assay [28] concerns Bacillus thuringiensis AB92037.
Assay [29] deals with Bacillus subtilis AB91021.
The subject of assay [30] is Micrococcus luteus AB93113.
For assay [31], the system named is Staphylococcus aureus AB94004.
Assay [32] relates to Batrachochytrium dendrobatidis.
The subject of assay [33] is Pasteurella multocida.
In assay [34] the test system is Leuconostoc lactis.
Assay [35] deals with Micrococcus luteus.
Assay [36] has as its system Staphylococcus epidermidis.
In assay [37] the test system is Streptococcus uberis.
The test system of assay [38] is Staphylococcus aureus.
In assay [39] the test system is Escherichia coli.
Assay [40] relates to Listeria innocua.
Assay [41] relates to Bacillus cereus.
For assay [42], the system named is Staphylococcus aureus ATCC 43300.
For assay [43], the system named is Listeria monocytogenes ATCC 19115.
Assay [44] has as its system Klebsiella pneumoniae ATCC 13883.
Assay [45] deals with Staphylococcus aureus ATCC BAA-39.
For assay [46], the system named is Staphylococcus aureus ATCC 25923.
Assay [47] has as its system Salmonella enterica subsp. enterica serovar Typhimurium ATCC 14028.
Assay [48] deals with Salmonella enterica subsp. enterica serovar Typhimurium ATCC 700408.

Each structure is given as a SMILES string. Values after ≈ are worked out from the molar mass of the structure shown. Some results are limits rather than exact numbers.

For orientation: MIC means the least concentration at which growth counts as inhibited. Low readings indicate a more susceptible organism, high ones a less susceptible organism. As for `CC[C@H](C)[C@H](NC(=O)[C@H](CC(C)C)NC(=O)CNC(=O)[C@@H](NC(=O)[C@@H](NC(=O)[C@H](Cc1cnc[nH]1)NC(=O)[C@H](Cc1cnc[nH]1)NC(=O)[C@H](CC(C)C)NC(=O)[C@@H](N)Cc1ccccc1)[C@@H](C)CC)C(C)C)C(=O)N[C@@H](Cc1cnc[nH]1)C(=O)N[C@@H](Cc1cnc[nH]1)C(=O)NCC(=O)N[C@@H](CC(C)C)C(=O)N[C@@H](CO)C(=O)N[C@@H](CC(C)C)C(=O)N[C@@H](Cc1ccccc1)C(=O)NCC(=O)N[C@@H](CC(=O)O)C(=O)N[C@@H](CCCN=C(N)N)C(=O)N[C@@H](C)C(=O)N[C@@H](CC(=O)O)C(=O)O` [FLHHIVGLIHHGLSLFGDRAD], the MIC in assay [1] stood at 10 µM (≈ 23.5 µg/mL); in assay [2], 10 µM (≈ 23.5 µg/mL); in assay [3] it was 10 µM (≈ 23.5 µg/mL); in assay [4], 10 µM (≈ 23.5 µg/mL); in assay [5], 3.54 µM (≈ 8.33 µg/mL); in assay [6], 3.54 µM (≈ 8.33 µg/mL). The MIC was > 10 µM in assay [7]; 10 µM (≈ 23.5 µg/mL) in assay [8]; 10 µM (≈ 23.5 µg/mL) in assay [9]; 10 µM (≈ 23.5 µg/mL) in assay [10]; 10 µM (≈ 23.5 µg/mL) in assay [11]; 10 µM (≈ 23.5 µg/mL) in assay [12].
As for `CC[C@H](C)[C@H](NC(=O)[C@H](C)NC(=O)[C@H](CO)NC(=O)[C@H](CCCCN)NC(=O)[C@@H](NC(=O)CNC(=O)[C@H](CCC(=O)O)NC(=O)[C@H](Cc1c[nH]c2ccccc12)NC(=O)[C@H](CC(C)C)NC(=O)[C@H](CCCCN)NC(=O)CNC(=O)[C@H](Cc1c[nH]c2ccccc12)NC(=O)[C@H](Cc1ccccc1)NC(=O)CN)C(C)C)C(N)=O` [GFWGKLWEGVKSAI], the MIC in assay [13] is 31.7 µM (≈ 50 µg/mL); in assay [14], 4 µM (≈ 6.31 µg/mL); in assay [15], 4 µM (≈ 6.31 µg/mL); in assay [16], 7.92 µM (≈ 12.5 µg/mL); in assay [17], 7.92 µM (≈ 12.5 µg/mL); in assay [18], ≥ 63.4 µM. Moreover, the MIC in assay [19] stood at 3.96 µM (≈ 6.25 µg/mL); in assay [20], 3.96 µM (≈ 6.25 µg/mL); in assay [21] it was 15.8 µM (≈ 25 µg/mL); in assay [22], 2 µM (≈ 3.15 µg/mL); in [23] it was 8 µM (≈ 12.6 µg/mL); in [24], 7.92 µM (≈ 12.5 µg/mL). The MIC worked out at 15 µM (≈ 23.7 µg/mL) in assay [25]; 15 µM (≈ 23.7 µg/mL) in assay [26]; 3.96 µM (≈ 6.25 µg/mL) in assay [27]; 31.7 µM (≈ 50 µg/mL) in assay [28]; 15.8 µM (≈ 25 µg/mL) in [29]; 15.8 µM (≈ 25 µg/mL) in assay [30]. Further, the MIC in [31] was found to be 3.96 µM (≈ 6.25 µg/mL).
Take `CC[C@H](C)[C@H](NC(=O)CNC(=O)[C@H](CCC(=O)O)NC(=O)[C@@H](NC(=O)[C@@H](NC(=O)CNC(=O)[C@H](CO)NC(=O)[C@H](C)NC(=O)[C@H](CC(C)C)NC(=O)[C@H](CC(=O)O)NC(=O)CNC(=O)[C@H](C)NC(=O)[C@H](C)NC(=O)[C@H](CO)NC(=O)[C@H](CCCCN)NC(=O)[C@@H](NC(=O)[C@H](CCCCN)NC(=O)[C@H](CCC(N)=O)NC(=O)[C@H](Cc1c[nH]c2ccccc12)NC(=O)[C@H](CC(C)C)NC(=O)CN)[C@@H](C)CC)[C@@H](C)CC)C(C)C)C(=O)N[C@@H](CCCCN)C(=O)N[C@@H](CO)C(N)=O` [GLWQKIKSAAGDLASGIVEGIKS]: the MIC in assay [32] was ≥ 200 µM; in assay [33], ≥ 42.9 µM; in assay [34], ≥ 42.9 µM; in assay [35], 5.15 µM (≈ 12 µg/mL); in assay [36], ≥ 42.9 µM; in assay [37], ≥ 42.9 µM. Further, the MIC in [38] was > 42.9 µM; in [39] it was 10.7 µM (≈ 25 µg/mL); in [40], ≥ 42.9 µM; in [41], ≥ 42.9 µM.
Turning to `CC(C)C[C@H](NC(=O)[C@H](CCCN=C(N)N)NC(=O)CNC(=O)[C@H](CCC(N)=O)NC(=O)[C@@H]1CCCN1C(=O)[C@H](CC(C)C)NC(=O)[C@H](CCCCN)NC(=O)[C@H](Cc1ccccc1)NC(=O)[C@@H](NC(=O)[C@@H]1CCCN1C(=O)[C@H](CCC(N)=O)NC(=O)[C@H](CO)NC(=O)[C@H](Cc1ccccc1)NC(=O)[C@H](CCCN=C(N)N)NC(=O)[C@@H](N)CCC(N)=O)[C@@H](C)O)C(=O)N[C@H](C(=O)N[C@@H](CC(C)C)C(=O)N[C@@H](CO)C(=O)N[C@@H](CCCN=C(N)N)C(=O)N[C@@H](CCCCN)C(=O)N[C@@H](Cc1ccccc1)C(=O)N[C@@H](CCCN=C(N)N)C(=O)O)[C@@H](C)O` [QRFSQPTFKLPQGRLTLSRKFR], the MIC in assay [42] is 37.1 µM (≈ 100 µg/mL); in assay [43], 9.29 µM (≈ 25 µg/mL); in assay [44], 9.29 µM (≈ 25 µg/mL); in assay [7], 9.29 µM (≈ 25 µg/mL); in assay [45], ≥ 37.1 µM; in [46], 37.1 µM (≈ 100 µg/mL). Besides, the MIC in [47] and in assay [48] was 9.29 µM (≈ 25 µg/mL) in each case.
